According to patent US10457687B2, “Aminoacid derivatives, a process for their preparation and pharmaceutical compositions containing them” (LES LABORATOIRES SERVIER, priority 2015, dated 2019):

Molecular target: Mcl-1 protein (Homo sapiens, UniProt Q07820)
Test: Inhibition of Mcl-1 by the fluorescence polarisation technique (Method 1 or Method 2)
Assay type: binding
Settings: for IC50: fluorescence polarisation, Fluorescein labelled ligand, Method 1 (not underlined) or Method 2 (underlined), read-out: IC50 (μM) Mcl-1 FP
Procedure, shortened: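 Binding measured by FP, with Mcl-1 protein and fluorescein-labelled ligand mixed with compounds in an 11-point series at 5% final DMSO. Method 2 used 10 nM each of protein and ligand in phosphate buffer (20 mM Na2HPO4, 1 mM EDTA, 50 mM NaCl, pH 7.4); Method 1 used 5 nM protein, 1 nM ligand in HEPES buffer (10 mM HEPES, 150 mM NaCl, 0.05% Tween 20, pH 7.4).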

[1] = partial inhibitors, @ 50 μM test compound
[2] = partial inhibitors, @ 200 μM test compound

Chain of Mcl-1 protein (Q07820 whole entry): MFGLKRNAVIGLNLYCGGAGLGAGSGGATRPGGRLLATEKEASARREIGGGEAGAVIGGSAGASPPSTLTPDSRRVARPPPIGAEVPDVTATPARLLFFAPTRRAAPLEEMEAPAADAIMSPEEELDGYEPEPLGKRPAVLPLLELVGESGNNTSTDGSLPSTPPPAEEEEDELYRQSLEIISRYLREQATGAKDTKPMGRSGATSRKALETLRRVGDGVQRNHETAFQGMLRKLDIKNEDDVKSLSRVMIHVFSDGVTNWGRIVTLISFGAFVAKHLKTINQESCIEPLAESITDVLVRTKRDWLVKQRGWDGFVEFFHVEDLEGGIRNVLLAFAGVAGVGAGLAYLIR

Structure (SMILES) | IC50 | other results
CCc1sc2ncnc(NC(Cc3ccccc3)C(=O)O)c2c1-c1cccc2ccn(C)c12 [Example 84, N-[6-ethyl-(5Ra)-5-(1-methyl-1H-indol-7-yl)thieno[2,3-d]pyrimidin-4-yl]-D-phenylalanine] | 4.02 µM | 
CCc1sc2ncnc(NC(Cc3ccccc3)C(=O)O)c2c1-c1cccc2ccn(C)c12 [Example 83, N-[6-ethyl-(5Sa)-5-(1-methyl-1H-indol-7-yl)thieno[2,3-d]pyrimidin-4-yl]-D-phenylalanine] | 0.258 µM | 
CCc1sc2ncnc(N[C@H](Cc3ccccc3)C(=O)O)c2c1-c1cccc2c1cnn2C [Example 87, N-[6-ethyl-5-(1-methyl-1H-indazol-4-yl)thieno[2,3-d]pyrimidin-4-yl]-D-phenylalanine] |  | inhibition at 7.4 µM (partial inhibitors, @ 7.4 μM test compound, read-out: percentage fluorescence polarisation inhibition, Mcl-1 FP): 62.6%
CCc1sc2ncnc(NC(Cc3ccccn3)C(=O)O)c2c1-c1cccc2c1c(Cl)cn2CCN1CCN(C)CC1 [Example 249, N-((5Ra)-5-{3-chloro-1-[2-(4-methylpiperazin-1-yl)ethyl]-1H-indol-4-yl}-6-ethyl-thieno[2,3-d]pyrimidin-4-yl)-3-pyridin-2-yl-D-alanine] | 36.8 µM | 
CCc1sc2ncnc(N[C@H](Cc3ccccc3)C(=O)O)c2c1-c1cccc2c1c(Cl)cn2CCN(C)C [Example 231, N-((5Ra)-5-{3-chloro-1-[2-(dimethylamino)ethyl]-1H-indol-4-yl}-6-ethyl-thieno[2,3-d]pyrimidin-4-yl)-D-phenylalanine] |  | percentage fluorescence polarisation inhibition, Mcl-1 FP [1]: 56.75% @ 50 μM
CCc1sc2ncnc(NC(Cc3ccc(O)cc3)C(=O)O)c2c1-c1cccc2ccccc12 [Example 173, N-[6-ethyl-(5Sa)-5-(naphthalen-1-yl)thieno[2,3-d]pyrimidin-4-yl]-D-tyrosine] | 6.79 µM | 
CCc1sc2ncnc(NC(Cc3ccccc3)C(=O)O)c2c1-c1cccc2c1c(Cl)cn2CCN1CCCCC1 [Example 235, N-((5Sa)-5-{3-chloro-1-[2-(piperidin-1-yl)ethyl]-1H-indol-4-yl}-6-ethyl-thieno[2,3-d]pyrimidin-4-yl)-D-phenylalanine] | 1.39 µM | 
CCc1sc2ncnc(NC(Cc3ccccc3)C(=O)O)c2c1-c1cccc2c1c(Cl)cn2CCN1CCOCC1 [Example 236, N-((5Ra)-5-{3-chloro-1-[2-(morpholin-4-yl)ethyl]-1H-indol-4-yl}-6-ethyl-thieno[2,3-d]pyrimidin-4-yl)-D-phenylalanine] | 13.5 µM | 
CCc1sc2ncnc(NC(Cc3ccccc3)C(=O)O)c2c1-c1cccc2ccccc12 [Example 100, N-[6-ethyl-(5Ra)-5-(naphthalen-1-yl)thieno[2,3-d]pyrimidin-4-yl]-D-phenylalanine] | 4.75 µM | 
CCc1sc2ncnc(N[C@H](Cc3ccccc3OCCN(C)C)C(=O)O)c2c1-c1cccc(Cl)c1C [Example 155, N-[(5Ra)-5-(3-chloro-2-methylphenyl)-6-ethylthieno[2,3-d]pyrimidin-4-yl]-2-[2-(dimethylamino)ethoxy]-D-phenylalanine] |  | percentage fluorescence polarisation inhibition, Mcl-1 FP [1]: 63.15% @ 50 μM
CCc1sc2ncnc(NC(Cc3ccccc3)C(=O)O)c2c1-c1cc(Cl)c(O)c(Cl)c1C [Example 52, N-[(5Ra)-5-(3,5-dichloro-4-hydroxy-2-methylphenyl)-6-ethylthieno[2,3-d]pyrimidin-4-yl]-D-phenylalanine] | 0.301 µM | 
CCc1sc2ncnc(NC(Cc3c[nH]c4ccccc34)C(=O)O)c2c1-c1cccc2ccccc12 [Example 185, N-[6-ethyl-(5Sa)-5-(naphthalen-1-yl)thieno[2,3-d]pyrimidin-4-yl]-D-tryptophan] | 2.53 µM | 
CCc1sc2ncnc(N[C@H](Cc3ccccc3)C(=O)O)c2c1-c1ccnc(Cl)c1C [Example 77, N-[(5Ra)-5-(2-chloro-3-methylpyridin-4-yl)-6-ethylthieno[2,3-d]pyrimidin-4-yl]-D-phenylalanine] |  | percentage fluorescence polarisation inhibition, Mcl-1 FP [2]: 75.45% @ 200 μM
CCc1sc2ncnc(N[C@H](Cc3ccccc3Br)C(=O)O)c2c1-c1cccc(Cl)c1C [Example 139, 2-bromo-N-[(5Ra)-5-(3-chloro-2-methylphenyl)-6-ethylthieno[2,3-d]pyrimidin-4-yl]-D-phenylalanine] |  | percentage fluorescence polarisation inhibition, Mcl-1 FP (partial inhibitors, @ 10 μM test compound): 32.75% @ 10 μM
CCc1sc2ncnc(NC(Cc3ccccc3)C(=O)O)c2c1-c1cccc2[nH]ccc12 [Example 73, N-[6-ethyl-(5Sa)-5-(1H-indol-4-yl)thieno[2,3-d]pyrimidin-4-yl]-D-phenylalanine] | 0.276 µM | 
CCc1sc2ncnc(NC(Cc3ccccc3)C(=O)O)c2c1-c1cc(Cl)c(OCCN2CCN(C)CC2)c(Cl)c1C [Example 54, N-((5Sa)-5-{3,5-dichloro-2-methyl-4-[2-(4-methylpiperazin-1-yl)ethoxy]phenyl}-6-ethylthieno[2,3-d]pyrimidin-4-yl)-D-phenylalanine] | 0.541 µM | 

Structure (SMILES) | IC50 | other results
CC=Cc1sc2ncnc(NC(Cc3ccccc3)C(=O)O)c2c1-c1cccc2ccccc12 [Example 109, N-{(5Ra)-5-(naphthalen-1-yl)-6-[(1E)-prop-1-en-1-yl]thieno[2,3-d]pyrimidin-4-yl}-D-phenylalanine] | 1.86 µM | 
CCc1sc2ncnc(N[C@H](Cc3cccc4ccccc34)C(=O)O)c2c1-c1cccc2ccccc12 (single isomer, unassigned) [Example 186, N-[6-ethyl-5-(naphthalen-1-yl)thieno[2,3-d]pyrimidin-4-yl]-3-naphthalen-1-yl-D-alanine] | 7.88 µM | 
CCc1sc2ncnc(NC(Cc3ccccc3)C(=O)O)c2c1-c1cccc2c1c(Cl)cn2CCN1CCCCC1 [Example 234, N-((5Ra)-5-{3-chloro-1-[2-(piperidin-1-yl)ethyl]-1H-indol-4-yl}-6-ethyl-thieno[2,3-d]pyrimidin-4-yl)-D-phenylalanine] |  | percentage fluorescence polarisation inhibition, Mcl-1 FP [1]: 68.7% @ 50 μM
CCc1sc2ncnc(NC(Cc3ccccc3)C(=O)O)c2c1-c1cccc2c1c(Cl)cn2CCN1CCOCC1 [Example 237, N-((5Sa)-5-{3-chloro-1-[2-(morpholin-4-yl)ethyl]-1H-indol-4-yl}-6-ethyl-thieno[2,3-d]pyrimidin-4-yl)-D-phenylalanine] | 0.569 µM | 
C=Cc1sc2ncnc(NC(Cc3ccccc3)C(=O)O)c2c1-c1cccc2ccccc12 [Example 102, N-[6-ethenyl-(5Sa)-5-(naphthalen-1-yl)thieno[2,3-d]pyrimidin-4-yl]-D-phenylalanine] | 0.073 µM | 
CCc1sc2ncnc(N[C@H](CCc3ccccc3)C(=O)O)c2c1-c1cccc2ccccc12 [Example 169, (2R)-2-{[6-ethyl-5-(naphthalen-1-yl)thieno[2,3-d]pyrimidin-4-yl]amino}-4-phenylbutanoic acid] | 2.1 µM | 
CCc1sc2ncnc(NC(Cc3ccccc3OCCN(C)C)C(=O)O)c2c1-c1cccc(Cl)c1C [Example 156, N-[(5Sa)-5-(3-chloro-2-methylphenyl)-6-ethylthieno[2,3-d]pyrimidin-4-yl]-2-[2-(dimethylamino)ethoxy]-D-phenylalanine] | 0.309 µM | 
CCc1sc2ncnc(NC(Cc3ccccn3)C(=O)O)c2c1-c1cccc2c1c(Cl)cn2CCN1CCN(C)CC1 [Example 248, N-((5Sa)-5-{3-chloro-1-[2-(4-methylpiperazin-1-yl)ethyl]-1H-indol-4-yl}-6-ethyl-thieno[2,3-d]pyrimidin-4-yl)-3-pyridin-2-yl-D-alanine] | 2.18 µM | 
CCc1sc2ncnc(NC(Cc3ccccc3OCCC3CCCC3)C(=O)O)c2c1-c1cccc(Cl)c1C [Example 144, N-[(5Sa)-5-(3-chloro-2-methylphenyl)-6-ethylthieno[2,3-d]pyrimidin-4-yl]-2-(2-cyclopentylethoxy)-D-phenylalanine] | 0.154 µM | 
CCc1sc2ncnc(NC(Cc3ccccc3)C(=O)O)c2c1-c1ccc(OCCCN(C)C)c(Cl)c1C [Example 60, N-((5Sa)-5-{3-chloro-4-[3-(dimethylamino)propoxy]-2-methylphenyl}-6-ethylthieno[2,3-d]pyrimidin-4-yl)-D-phenylalanine] | 0.092 µM | 
CCc1sc2ncnc(N[C@H](Cc3ccccc3)C(=O)O)c2c1-c1cccc2cc[nH]c12 (single isomer, unassigned) [Example 72, N-[6-ethyl-5-(1H-indol-7-yl)thieno[2,3-d]pyrimidin-4-yl]-D-phenylalanine] | 12 µM | 
CC(C)(O)c1sc2ncnc(NC(Cc3ccccc3)C(=O)O)c2c1-c1cccc2ccccc12 [Example 210, N-[6-(2-hydroxypropan-2-yl)-(5Sa)-5-(naphthalen-1-yl)thieno[2,3-d]pyrimidin-4-yl]-D-phenylalanine] | 8.36 µM | 
CCc1sc2ncnc(N[C@H](Cc3ccccc3)C(=O)O)c2c1-c1cccc2ccccc12 [Example 79, N-[6-ethyl-5-(naphthalen-1-yl)thieno[2,3-d]pyrimidin-4-yl]-D-phenylalanine] | 0.429 µM | 
CCCCn1nccc1COc1ccccc1CC(Nc1ncnc2sc(-c3ccc(F)o3)c(-c3ccc(OCCN4CCN(C)CC4)c(Cl)c3C)c12)C(=O)O [Example 24, 2-[(1-butyl-1H-pyrazol-5-yl)methoxy]-N-[(5Sa)-5-{3-chloro-2-methyl-4-[2-(4-methylpiperazin-1-yl)ethoxy]phenyl}-6-(5-fluorofuran-2-yl)thieno[2,3-d]pyrimidin-4-yl]-D-phenylalanine] | 0.008 µM | 
CCc1sc2ncnc(NC(Cc3ccccc3)C(=O)O)c2c1-c1ccc(OCCCN2CCN(C)CC2)c(Cl)c1C [Example 64, N-((5Sa)-5-{3-chloro-2-methyl-4-[3-(4-methylpiperazin-1-yl)propoxy]phenyl}-6-ethylthieno[2,3-d]pyrimidin-4-yl)-D-phenylalanine] | 0.025 µM | 
CCc1sc2ncnc(N[C@H](Cc3c[nH]c4ccccc34)C(=O)O)c2c1-c1cccc2ccccc12 [Example 184, N-[6-ethyl-(5Ra)-5-(naphthalen-1-yl)thieno[2,3-d]pyrimidin-4-yl]-D-tryptophan] |  | percentage fluorescence polarisation inhibition, Mcl-1 FP [2]: 76.8% @ 200 μM
